Laboratory results: PubChem BioAssay AID2060892 (Molecular Pharmacology Branch, DTP, NCI, 2025)

Tested on: HOP-62 complex spheroids with HUVEC/MSC, viability
Assay: Anticancer human tumor HOP-62 cell line growth inhibition [RAS];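 also: spheroids exposed to agents for seven days before readout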;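 as to viability, T/C: 100% = DMSO vehicle control viability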
Conditions: for IC50: curve of first compound; for viability, T/C: stronger effect = lower value
From the text: RAS pathway inhibitors in Combinations in Complex Spheroids
A high-throughput screen of multi-cell type tumor spheroids was designed to identify active combinations of RAS pathway inhibitors and targeted small molecules. Complex spheroids include a stromal component modeled by human endothelial cells (HUVEC) and fibroblasts modeled by human mesenchymal stem cells (MSCs). The concentration ranges selected for each drug and investigational agent were based upon clinically achievable concentrations if the clinical Cmax of the agent was known.
Compounds. The drugs and investigational agents: abemaciclib (NSC768073), cobimetinib (NSC768068), divarasib (GDC6063, NSC841802), docetaxel (NSC628503), GDC-1971 (RLY-1971, NSC841576), gemcitabine (NSC613327), inavolisib (NSC800729), ipatasertib (NSC767898), KB-0742 (NSC834161), MRTX-1133 (NSC836407), osimertinib (NSC779217), RMC-4630 (NSC839698), RMC-6236 (NSC851965), RMC-6291 (NSC852671), Ro-3306 (NSC812927), sapanisertib (NSC764658), SN-38 (NSC673596), staurosporine (NSC755774), SY5609 (NSC837396), and tovorafenib (DAY101, NSC766906), were obtained from the National Cancer Institute (NCI) Developmental Therapeutics Program Chemical Repository. The FDA-approved anticancer drug set is available from the NCI Developmental Therapeutics Program. […] The stock solutions were prepared in dimethyl sulfoxide (DMSO, Sigma-Aldrich, St. Louis, MO, cat. D2650) at 800-fold the tested concentration and stored at -70 degrees C prior to their use. All drugs and investigational agents were tested over a range starting from a high concentration at or near the clinical Cmax and decreasing in half-log increments. If the clinical Cmax for an agent had not been determined, the highest concentration tested was 10 microM.
Cell Culture. All cells were maintained in an incubator at 37 degrees C and 5% CO2 with 95% humidity. The PDC lines were cultured according to standard operating procedures established by the NCI PDMR. All PDCs were thawed and cultured in Matrigel-coated flasks prepared with a working solution of 1X Ham's F-12 nutrient mix, without supplementation (Invitrogen, Waltham, MA, cat. 11765054), 100 U/mL penicillin-streptomycin (Invitrogen, cat. 15140122), and 2.5% Matrigel (Corning Inc., Corning, NY, cat. 354248) for the first three passages. The 362531-283-R-J2-PDC and 782815-120-R-J1-PDC lines were cultured in 6C/Colon 1B media, which includes advanced DMEM/F-12 (Thermo Fisher Scientific, cat. 12634028), 10 mM HEPES (Thermo Fisher Scientific, cat. 15630080), 1X GlutaMAX supplement (Thermo Fisher Scientific, cat. 35050061), 0.1 mg/mL primocin (InvivoGen, San Diego, CA, cat. ant-pm-2), 10% defined fetal bovine serum, heat inactivated (HyClone Laboratories Inc., Logan, UT, cat. SH30070.03HI), 50% L-WRN conditioned media (ATCC, cat. CRL-3276), 1.25 mM N-Acetyl-L-cysteine (Sigma-Aldrich, cat. A9165), 10 mM nicotinamide (Sigma-Aldrich, cat. N0636), 1X B-27 supplement (Thermo Fisher Scientific, cat. 17504044), 1X N-2 supplement (Thermo Fisher Scientific, cat. 17502048), 50 ng/mL human EGF (Thermo Fisher Scientific, cat. PHG0311), and 10 microM Y-27632 dihydrochloride (Tocris Bioscience, cat. 1254). The K12877-001-R-J1-PDC line was cultured in 6I media, which includes all 6C/Colon 1B media plus 10 ng/mL human FGF-10 (PeproTech, cat. 100-26), 1 ng/mL human FGF-2 (PeproTech, cat. 100-18B), 1 µM prostaglandin E2 (Tocris Bioscience, cat. 2296), […] hydrocortisone (Sigma-Aldrich, cat. H4001), and […] bovine insulin (Sigma-Aldrich, cat. I6634). The K86415-001-R-J1-PDC line was cultured in 6D media, which includes all 6C/Colon 1B media components minus the L-WRN conditioned media. The 485176-168-R4-J1-PDC was cultured in PANC media, which includes all 6C/Colon 1B media plus 100 ng/mL human FGF-10 (PeproTech, cat. 100-26), 500 nM SB-431542 (Selleckchem, cat. S1067), and 10 nM gastrin (Tocris Bioscience, cat. 3006). […]

CC(Nc1ccc2c(c1)OCCn1cc(N3C(=O)OCC3C(F)F)nc1-2)C(N)=O (configuration not stated) + C#Cc1c(F)ccc2cc(O)cc(-c3ncc4c(N5CC6CCC(C5)N6)nc(OCC56CCCN5CC(F)C6)nc4c3F)c12
IC50 (second compound 0.0316 µM): 1.33 µM | IC50 (second compound 0.1 µM): 1.61 µM | IC50 (second compound 0.316 µM): 1.02 µM | IC50 (second compound 1 µM): 0.751 µM | IC50 (second compound 3.16 µM): 0.0964 µM | IC50 (second compound 10 µM): < 0.0316 µM | viability, T/C (second compound 0.0316 µM, first compound 0.0316 µM): 80.5% | viability, T/C (second compound 0.0316 µM, first compound 0.1 µM): 69.2% | viability, T/C (second compound 0.0316 µM, first compound 0.316 µM): 54.6% | viability, T/C (second compound 0.0316 µM, first compound 1 µM): 59.8% | viability, T/C (second compound 0.0316 µM, first compound 3.16 µM): 42.8% | viability, T/C (second compound 0.0316 µM, first compound 10 µM): 32.9% | viability, T/C (second compound 0.1 µM, first compound 0.0316 µM): 85.6% | viability, T/C (second compound 0.1 µM, first compound 0.1 µM): 78.5% | viability, T/C (second compound 0.1 µM, first compound 0.316 µM): 57% | viability, T/C (second compound 0.1 µM, first compound 1 µM): 58.4% | viability, T/C (second compound 0.1 µM, first compound 3.16 µM): 45.9% | viability, T/C (second compound 0.1 µM, first compound 10 µM): 32.8% | viability, T/C (second compound 0.316 µM, first compound 0.0316 µM): 86.9% | viability, T/C (second compound 0.316 µM, first compound 0.1 µM): 68.9% | viability, T/C (second compound 0.316 µM, first compound 0.316 µM): 59.6% | viability, T/C (second compound 0.316 µM, first compound 1 µM): 52.9% | viability, T/C (second compound 0.316 µM, first compound 3.16 µM): 41.3% | viability, T/C (second compound 0.316 µM, first compound 10 µM): 31.4% | viability, T/C (second compound 1 µM, first compound 0.0316 µM): 78.5% | viability, T/C (second compound 1 µM, first compound 0.1 µM): 67.4% | viability, T/C (second compound 1 µM, first compound 0.316 µM): 53.5% | viability, T/C (second compound 1 µM, first compound 1 µM): 50.6% | viability, T/C (second compound 1 µM, first compound 3.16 µM): 39.2% | viability, T/C (second compound 1 µM, first compound 10 µM): 28.4% | viability, T/C (second compound 3.16 µM, first compound 0.0316 µM): 67.8% | viability, T/C (second compound 3.16 µM, first compound 0.1 µM): 41.7% | viability, T/C (second compound 3.16 µM, first compound 0.316 µM): 40% | viability, T/C (second compound 3.16 µM, first compound 1 µM): 32.3% | viability, T/C (second compound 3.16 µM, first compound 3.16 µM): 22.3% | viability, T/C (second compound 3.16 µM, first compound 10 µM): 15.1% | viability, T/C (second compound 10 µM, first compound 0.0316 µM): 31.3% | viability, T/C (second compound 10 µM, first compound 0.1 µM): 22.8% | viability, T/C (second compound 10 µM, first compound 0.316 µM): 19.2% | viability, T/C (second compound 10 µM, first compound 1 µM): 17.3% | viability, T/C (second compound 10 µM, first compound 3.16 µM): 12.6% | viability, T/C (second compound 10 µM, first compound 10 µM): 10.2%
